Measurements taken from US9150523B2, “Piperazine derivatives, methods for preparing same, and uses thereof in the treatment of insulin resistance” (METABOLYS, priority 2011, dated 2015).

Tested on: db/db mouse
Test: Antidiabetic activity in db/db mouse (drop in glycaemia after oral administration)
Type: in vivo
Conditions: 8 weeks old, 200 mg/kg per os
Method: The antidiabetic activity of the compound of formula (I) orally on a type 2 diabetes animal model, the db/db mouse, was tested. Diabetic mice are used at the age of 8 weeks; they then have very high hyperglycaemia. The animals are stabilised at a minimum for one week after reception and up to the day of experimentation in an animal house at a temperature regulated at 21°-22° C. and subjected to a fixed cycle of light (from 7 a.m. to 7 p.m.) and darkness (from 7 p.m. to 7 a.m.). Their food consisted of a maintenance regime; water and food were supplied “ad libitum”. The mice are treated orally with the product to be tested (200 mg/kg per os) in suspension in a mixture of water and methyl cellulose or the vehicle (mixture of water and methyl cellulose) in the morning of the day of the experimentation. Just before the administration of the product and one and two hours after the administration of the product, a blood sample (one drop of blood) is taken following a small incision in the tail for determining glycaemia. This glycaemia is measured by means of a glucometer (Lifescan OneTouch Ultra, LifeScan, Johnson-Johnson Company) and OneTouch Ultra glycaemia measurement strips.

SMILES: COc1ccccc1N1CCN(CCOc2ccc(CCCCC(=O)O)cc2)CC1.Cl [Compound 1]
- Drop in glycaemia (in % of the initial value) After 1 hour (1 hour after administration): 34%
- Drop in glycaemia (in % of the initial value) After 2 hours (2 hours after administration): 44%
